Experimental data from patent US20040126817A1, “Gap junction permeability assay” (priority 2001, published 2004).
Counter-ions that a name gives are not always drawn.

How the values were obtained:
NRK cells = assay: CRE-luciferase response in NRK receiver cells only (check for endogenous D1-receptor); assay type: cell-based, rat; details: for Luciferase responses: 10 μM, 6½ hours, control = 100%
Experimental: These experiments are performed to investigate whether the NRK cells express the D1-receptor endogenously. If NRK cells express D1 receptor endogenously, the receiver cells would be able to generate cAMP and produce a chemiluminescent signal independently of GJIC and the endogenous messenger generated by the sender cell. So only receiver cells are used for this experiment.
Cells are transfected with 5 μg CRE-luciferase DNA and 500 ng pRL-SV40 DNA per 6 cm dish. Each well of a 24-well plate received 250 μL cell suspension and 250 μL media, or approx. 25 000 cells. Cells are stimulated with 10 μM forskolin or apomorphine during 6½ hours before harvesting.

[1] = test system: Cx32-mediated GJIC in HeLa cells; assay: Gap junction coupling assay, HeLa sender and receiver cells with or without transfected Cx32; assay type: cell-based, human; details: 10 μM, duplicates; for Luciferase response, Cells transfected with Cx32: 4.8 μg Cx32 DNA; for Luciferase response, Cells transfected with Cx32 / Luciferase response, Cells not transfected with Cx32: 1 ml sender + 0.2 ml receiver cells, percentage of control; for Luciferase response, Single dose Cx32: sender cells 2.4 μg Cx32 DNA; for Luciferase response, Single dose Cx32 / Luciferase response, Double dose Cx32: control = 100%; for Luciferase response, Double dose Cx32: sender cells 4.8 μg Cx32 DNA
[2] = test system: GJIC in NRK (Normal Rat Kidney) cells, mainly Cx43; assay: Gap junction coupling assay, NRK sender cells (D1-receptor) plus NRK receiver cells (CRE-luciferase), endogenous connexins; assay type: cell-based; details: for Luciferase responses: NRK sender:receiver 1:1, 10 μM forskolin or 1 μM cAMP, 6 hours; for Luciferase responses / Luciferase response, 50 μM AGA / Luciferase response, 100 μM AGA / Luciferase response, 150 μM AGA / Luciferase response, Vehicle: control = 100%; for Luciferase response, 50 μM AGA / Luciferase response, 100 μM AGA / Luciferase response, 150 μM AGA / Luciferase response, Vehicle: NRK sender:receiver 1:1, agonist 10 μM, 6½ hours; for Luciferase response, 50 μM AGA: 50 μM AGA added 30 min before; for Luciferase response, 100 μM AGA: 100 μM AGA added 30 min before; for Luciferase response, 150 μM AGA: 150 μM AGA added 30 min before; for Luciferase response, Vehicle: no AGA (DMSO)
[3] = test system: GJIC in CHO (Chinese Hamster Ovary) cells; assay: Gap junction coupling assay, CHO sender and receiver cells with or without exogenous Cx32; assay type: cell-based; details: 10 μM, 8 hours, control = 100%, duplicates; for Luciferase response, With exogenous Cx32: CHO transfected with Cx32 DNA; for Luciferase response, No exogenous Cx32: CHO
[4] = IV injection of glucagon in humans; cited from earlier work
HeLa cells = assay: CRE-luciferase response in HeLa receiver cells only; assay type: cell-based, human; details: n=2, control = 100%
Experimental: This is conformed by an experiment in which apomorphine is added to wells containing only receiver cells. As predicted, there is no elicited response. Luciferase activity values are 100.0±6.5% (control, n=2) and 75.9±3.0% (apomorphine, n=2).

| Molecule | Luciferase responses (NRK cells) | Luciferase response, Cells transfected with Cx32 [1] [%] | Luciferase response, Cells not transfected with Cx32 [1] [%] | Luciferase response, Single dose Cx32 [1] [%] | Luciferase response, Double dose Cx32 [1] [%] | Luciferase responses [2] [%] | Luciferase response, 50 μM AGA [2] [%] | Luciferase response, 100 μM AGA [2] [%] | Luciferase response, 150 μM AGA [2] [%] | Luciferase response, Vehicle [2] [%] | Luciferase response, With exogenous Cx32 [3] [%] | Luciferase response, No exogenous Cx32 [3] [%] | other results |
| --- | --- | --- | --- | --- | --- | --- | --- | --- | --- | --- | --- | --- | --- |
| C=C[C@@]1(C)CC(=O)[C@]2(O)[C@@]3(C)[C@@H](O)CCC(C)(C)[C@@H]3[C@H](O)[C@H](OC(C)=O)[C@@]2(C)O1 [Forskolin, forskolin] | 876.6%±64.1 | 254.6 ± 113.3 | 272.5 ± 40.9 | 139.0 ± 14.3 | 195.1 ± 18.2 | 669.3±56.8 | 732.6 ± 52.2 | 669.9 ± 18.3 | 685.8 ± 32.0 | 581.3 | 356.5 ± 21.8 | 701.9 ± 0.0 | increase in chemiluminescent signal (NRK cells; 10 μM forskolin): more than 8 fold |
| glucagon | – | – | – | – | – | – | – | – | – | – | – | – | plasma levels of cAMP [4]: up to 200 nM |
| CC1(C)[C@@H](O)CC[C@]2(C)[C@H]3C(=O)C=C4[C@H]5C[C@@](C)(C(=O)O)CC[C@]5(C)CC[C@@]4(C)[C@]3(C)CC[C@@H]12 [18-alpha-glycyrrhetinic acid] | – | – | – | – | – | – | – | – | – | – | – | – | effect on the apomorphine-induced chemiluminescent signal (GJIC) ([2]; NRK, 50, 100, 150 μM AGA, 10 μM apomorphine): able to decrease this effect in a concentration-dependent manner; effect on the response to forskolin (independent of GJIC) ([2]; NRK, 50, 100, 150 μM AGA, 10 μM forskolin): unaffected |
| CN1CCc2cccc3c2[C@H]1Cc1ccc(O)c(O)c1-3 [Apomorphine, Apomorphine hydrochloride] | 124.8%±6.8 | 217.5 ± 3.0 | 109.5 ± 1.1 | 121.1 ± 7.2 | 176.5 ± 8.1 | – | 156.0 ± 8.9 | 137.6 ± 9.3 | 109.7 ± 8.0 | 297.5 | 302.2 ± 2.2 | 222.6 ± 22.6 | increase over background of the chemiluminescent signal ([2]; NRK sender:receiver 1:1, 10 μM apomorphine): three-fold increase; Receiver Cell Response ([2]; NRK sender:receiver 5:1, 6 hours, buffer = 100%, mean±SEM of 3): 324 ± 14.4%; Luciferase activity values (HeLa cells): 75.9±3.0% |
| Nc1ncnc2c1ncn2[C@@H]1O[C@@H]2COP(=O)(O)O[C@H]2[C@H]1O [cAMP, cyclic adenosine monophosphate] | – | – | – | – | – | 87.5±5.8 | – | – | – | – | – | – | – |
